The test system of data set [1] is Candida glabrata. The data set is described as follows: In vitro broth dilution MIC, Candida glabrata. The following applies: 9 strains; for MIC90: Nakaseomyces glabratus, read-out: MIC 90 (Minimum Inhibitory Concentrations for 90% of the strains). Type of data set: cell-based. For orientation: Dilution methods test growth across graded concentrations, often in twofold steps.
Protocol: (§1) The in vitro antifungal activity tests were performed via conventional broth dilution methods in Sabouraud dextrose broth ("SDB") medium and Eagles Minimum Essential Medium ("EMEM") against a large number of fungi. Minimum Inhibitory Concentrations ("MICs") were measured after 24, 48 and 72 hour tests. In many cases, Minimum Fungicidial Concentrations ("MFCS") were measured after 48 and 72 hours.

The subject of data set [2] is Dermatophytes. The data set is described as follows: In vitro broth dilution MFC, dermatophytes. Type of data set: cell-based, T. rubrum, T. mentagrophytes, and T. tonsurans. As to conditions: 6 strains.
Protocol: as §1
Data set [3] relates to Aspergillus. Kind of data set: In vitro broth dilution MFC, Aspergillus. As to conditions: 37 strains. Type of data set: cell-based, Aspergillus flavus, fumigatus and other species.
Protocol: as §1
Data set [4] concerns Candida krusei. The data set is described as follows: In vitro broth dilution MFC, Candida krusei. The data set is classed as cell-based. The following applies: 16 strains.
Protocol: as §1
The test system of data set [5] is Aspergillus. Kind of data set: In vitro broth dilution MIC, Aspergillus. Type of data set: cell-based, Aspergillus flavus, fumigatus and other species. The following applies: for MIC90: read-out: MIC 90 (Minimum Inhibitory Concentrations for 90% of the strains).
Protocol: as §1
Data set [6] has as its system Cryptococcus neoformans. Kind of data set: In vitro broth dilution MIC, Cryptococcus neoformans. The data set is classed as cell-based. The following applies: 3 strains.
Protocol: as §1
Data set [7] has as its system Candida albicans. Kind of data set: In vitro broth dilution MIC, Candida albicans. The data set is classed as cell-based. As to conditions: 26 strains; for MIC90: read-out: MIC 90 (Minimum Inhibitory Concentrations for 90% of the strains).
Protocol: as §1
In data set [8] the test system is Candida krusei. The data set is described as follows: In vitro broth dilution MIC, Candida krusei. Type of data set: cell-based. The following applies: 16 strains.
For data set [9], the system named is Cryptococcus neoformans. The data set is described as follows: In vitro broth dilution MFC, Cryptococcus neoformans. Type of data set: cell-based. The following applies: 3 strains.
Protocol: as §1
Data set [10] deals with Candida glabrata. Kind of data set: In vitro broth dilution MFC, Candida glabrata. Type of data set: cell-based. The following applies: 9 strains.
Protocol: as §1
Data set [11] deals with Candida tropicalis & stellatoidea. The following applies: 5 strains.
Protocol: as §1
Data set [12] has the same test system. The data set is described as follows: In vitro broth dilution MIC, Candida tropicalis & stellatoidea. Type of data set: cell-based. As to conditions: 5 strains.
Protocol: as §1
Data set [13] has as its system Dermatophytes. Kind of data set: In vitro broth dilution MIC, dermatophytes. Type of data set: cell-based, T. rubrum, T. mentagrophytes, and T. tonsurans. As to conditions: 6 strains.
Data set [14] deals with Candida albicans. The following applies: 26 strains.
Protocol: as §1
In data set [15] the test system is cytochrome P-450 liver drug metabolizing enzymes. Kind of data set: Induction of cytochrome P-450 liver drug metabolizing enzymes in an in vivo rat model. As to conditions: after oral administration.
Data set [16] is described as follows: Serum levels, serum half lives and tissue distribution following oral dosing. Type of data set: in vivo, mice, rats, dogs and monkeys.

The text below walks through data of US5661151A, “Tetrahydrofuran antifungals” (Schering Corporation, priority 1995, dated 1997).

Converted amounts (≈) assume the structure as drawn. Some results are limits rather than exact numbers.

Regarding `CC[C@H]([C@H](C)O)n1ncn(-c2ccc(N3CCN(c4ccc(OC[C@@H]5CO[C@@](Cn6cncn6)(c6ccc(F)cc6F)C5)cc4)CC3)cc2)c1=O`, the MIC90 in the data set on Candida glabrata [1] was 28.8 µg/mL (≈ 41.1 µM); with Aspergillus [5] (Aspergillus, 37 strains) it was 0.122 µg/mL (≈ 0.174 µM); in the data set on Candida albicans [7] it was 0.274 µg/mL (≈ 0.391 µM). The “Percentage of strains with MFCs ≤1 mcg/ml” value stood at 67 PERCENTAGE with Dermatophytes [2], 50 PERCENTAGE in the data set with Aspergillus [3] and 88 PERCENTAGE with Candida krusei [4]. Besides, the “MIC 90 (Minimum Inhibitory Concentrations for 90% of the strains)” value against Cryptococcus neoformans [6] is listed as “.05 MCG/ML”.
For the compound `OC(Cn1cncn1)(Cn1cncn1)c1ccc(F)cc1F` [FLZ, fluconazole], the “Percentage of strains with MICs ≤1 mcg/ml” value with Candida krusei [8] came out at 0 PERCENTAGE; in the data set on Candida glabrata [1], 0 PERCENTAGE; in the data set with Aspergillus [5] (Aspergillus, 37 strains), 0 PERCENTAGE; in data set [12] it was 100 PERCENTAGE; in the data set with Dermatophytes [13], 100 PERCENTAGE; in the data set with Cryptococcus neoformans [6] it was 0 PERCENTAGE. Besides, in the data set with Candida albicans [7], the “Percentage of strains with MICs ≤1 mcg/ml” value was 100 PERCENTAGE. Also, the MIC90 with Candida krusei [8] (Pichia kudriavzevii, read-out: MIC 90 (Minimum Inhibitory Concentrations for 90% of the strains)) worked out at 29.9 µg/mL (≈ 97.6 µM); in the data set on Candida glabrata [1], 29.3 µg/mL (≈ 95.7 µM); with Aspergillus [5] (Aspergillus, 37 strains), 29.9 µg/mL (≈ 97.6 µM); in [12] (Candida tropicalis, read-out: MIC 90 (Minimum Inhibitory Concentrations for 90% of the strains)) it was 0.917 µg/mL (≈ 2.99 µM); in the data set with Cryptococcus neoformans [6] (read-out: MIC 90 (Minimum Inhibitory Concentrations for 90% of the strains)), 25.9 µg/mL (≈ 84.6 µM); in the data set on Candida albicans [7], 0.887 µg/mL (≈ 2.9 µM). In addition, the “Percentage of strains with MFCs ≤1 mcg/ml” value in the data set on Cryptococcus neoformans [9] turned out to be 0 PERCENTAGE; in the data set on Dermatophytes [2], 0 PERCENTAGE; in the data set with Aspergillus [3], 0 PERCENTAGE; in the data set with Candida glabrata [10] it was 0 PERCENTAGE; in data set [11], 100 PERCENTAGE; with Candida krusei [4], 0 PERCENTAGE. Besides, the “Percentage of strains with MFCs ≤1 mcg/ml” value with Candida albicans [14] was 100 PERCENTAGE. Besides, in the data set on Aspergillus [5] (SDB, 37 species of Aspergillus, read-out: geometric mean MICs), the MIC was no less than 32 µg/mL.
With `CCC(C(C)O)n1ncn(-c2ccc(N3CCN(c4ccc(OCC5COC(Cn6cncn6)(c6ccc(F)cc6F)C5)cc4)CC3)cc2)c1=O` (centres unmarked) [drawing 21], in [15], the “induction of various cytochrome P-450 liver drug metabolizing enzymes” value is on record as “not inducers”. For the same compound, in data set [16] (following O.D. dosing), the serum half lives entry is “very long serum half lives”. In addition, in [16] (mice, rats, dogs and monkeys, oral dosing with a methyl cellulose formulation), the “serum levels compared to azoles of similar structure” value was “consistently higher serum levels”.
As for `CCC(C(C)O)n1ncn(-c2ccc(N3CCN(c4ccc(OCC5COC(Cn6cncn6)(c6ccc(F)cc6F)C5)cc4)CC3)cc2)c1=O` (centres unmarked) [drawing 23], the figures for the “Percentage of strains with MFCs ≤1 mcg/ml” value in the data set with Dermatophytes [2], in the data set on Aspergillus [3] and in the data set with Candida krusei [4] were 83 PERCENTAGE, 62 PERCENTAGE and 94 PERCENTAGE, respectively. Moreover, in the data set on Cryptococcus neoformans [6], the “MIC 90 (Minimum Inhibitory Concentrations for 90% of the strains)” value is “.007 MCG/ML”.
With `CCC(C(C)O)n1ncn(-c2ccc(N3CCN(c4ccc(OCC5COC(Cn6cncn6)(c6ccc(F)cc6F)C5)cc4)CC3)cc2)c1=O` (centres unmarked) [drawing 24], the “Percentage of strains with MFCs ≤1 mcg/ml” value with Dermatophytes [2] is listed as 100 PERCENTAGE; in the data set with Aspergillus [3], 89 PERCENTAGE; with Candida krusei [4], 100 PERCENTAGE.
